According to patent US20080021105A1, “Medicine Capable of Inhibiting Activation of Transcription Factor Klf5” (THE UNIVERSITY OF TOKYO, priority 2004, published 2008):

Assays:
[1] = test system: vascular intimal hyperplasia resulted from vascular injury due to the cuff; assay: Mouse cuff-induced injury model, Example 3-2 (EVG staining); format: in vivo, C57BL6/N mice; conditions: for I/M ratio (mean ± S.D.): EVG staining, 5 weeks after cuff; for ratio of I/M (intima/media) compared with the control group: Example 3-2
Experimental: Vascular remodeling analysis was performed by using a cuff-induced injury model. Usefulness of this model in relation to vascular remodeling has been reported (Physiol. Genomics, 2, pp.13-30, 2000; Circulation, 104, pp.2716-2721; Circulation, 106, pp.847-853, 2002). For this experiment, 8-week old male C57BL6/N mice (10 animals/group) were used. In an amount of 100 or 200 mg/kg of NIK-333 or 5 or 10 mg/kg of ATRA suspended in soybean oil was orally given once daily every day from 7 days before placement of a cuff (placement of polyethylene tube around blood vessel) to the day before sacrifice. The control group were received soybean oil alone in the same manner. After the 7-day pretreatment, the right femoral artery was covered with PE50 (polyethylene tube 50, outer diameter: 0.965 mm, length: about 1.5 mm) as a cuff. The animals were sacrificed after 5 weeks. Blood was collected, and the cuff was removed under perfusion fixation via puncture of the left ventricle. For pathological evaluation, Elastica van Gieson (EVG) staining was performed. As a result, the ratio of I/M (intima/media) in vascular intimal hyperplasia resulted from vascular injury due to the cuff decreased in the NIK-333 treatment groups compared with the control group.

3T3-KLF5 cells = assay: Growth of cells with stable KLF5 (living cell count); format: cell-based; conditions: for living cell count: 10^−8 to 10^−5 M, 24 hours, serum-free, FIG. 5
Experimental: (§1) “3T3-KLF5 cells”, cells in which KLF5 was stably expressed (obtained by subcloning cDNA of KLF5 in a 3×FLAG expression vector to prepare a construct of 3×FLAG-KLF5, then transfecting 3T3 cells with the construct, and culturing the transfectants in the presence of G418 for 2 weeks to clone G418 resistant cells, control cells not containing KLF5 which were prepared in the same manner are referred to as 3T3-mock cells), were seeded in DMEM medium containing 10% FBS and penicillin G/streptomycin at a rate of 1×10^5 cells/well (6-well plate) and cultured overnight at 37° C. in a 5% CO2 incubator, and then the medium was changed to DMEM medium containing penicillin G/streptomycin (serum-free). The cells were added with NIK-333 dissolved in DMSO after 2 hours, cultured for 24 hours, and then counted.

3T3-mock cells = assay: Growth of control cells not containing KLF5 (living cell count); format: cell-based; conditions: for living cell count: 10^−8 to 10^−5 M, 24 hours, serum-free, FIG. 5
Experimental: as §1

[2] = test system: neointimal formation in injured blood vessels; conditions: administered to wild type mice; Nature Medicine, 8, pp.856-863, 2002; cited from earlier work
KLF5 = conditions: reporter assay using cells; Nature Medicine, 8, pp.856-863, 2002; cited from earlier work
hepatoma recurrence = conditions: clinical; long-term administration over one year; N. Eng. J. Med., 334, pp.1561-1567, 1996; cited from earlier work
[3] = clinical; N. Eng. J. Med., 334, pp.1561-1567, 1996; cited from earlier work
[4] = biological target: T1, transcription factor KLF5 (PDGF-A promoter activation under overexpression of RARα) (Homo sapiens, UniProt Q13887); assay: Luciferase assay of KLF5-dependent PDGF-A promoter activation, COS1 cells cotransfected with KLF5 and RARα; format: cell-based
T1 construct: expressed in transfected cells; host or cells: COS1 cells
Experimental: COS1 cells were seeded on a 24-well plate at a ratio of 5×10^4 cells/well and cultured at 37° C. in a 5% CO2 incubator for 12 hours. Transfection was performed by using TransFast (registered trade name, Promega) transfection reagent according to the protocol attached to the reagent. Specifically, the cells were added with pCAG/KLF5 or empty vector thereof (pCAG), pCMX/RARα or empty vector thereof (pCMX) and PDGF-A promoter (−900)-Luciferase and cultured at 37° C. in a 5% CO2 incubator for 48 hours. NIK-333 was dissolved in dimethyl sulfoxide (DMSO), and added at 10^−7 to 10^−5 M. Then, a luciferase assay was performed by using Dual Luciferase Reporter Assay System (Promega). In contrast to the transfection of the empty vector for KLF5 and the empty vector for RARα (Lane 1), the transfection of the KLF5 gene alone (Lane 2) and transfection of the RARα gene alone (Lane 3), the transfection of the KLF5 and RARα genes (Lane 4) activated the PDGF-A promoter. This KLF5-dependent PDGF-A promoter activation action under overexpression of RARα was inhibited by NIK-333 (Lanes 5 to 7).
(§2) COS1 cells were seeded on a 24-well plate at a rate of 5×10^4 cells/well and cultured overnight at 37° C. in a 5% CO2 incubator. Transfection was performed by using TransFast (registered trade name, Promega) transfection reagent according to the protocol attached to the reagent. Specifically, the cells were added with pCAG/KLF5 or empty vector thereof (pCAG), pRSh/RARα, pRSh/RARβ, pRSh/RARγ or empty vector thereof (pRS-RSV) and PDGF-A promoter (−900)-Luciferase and cultured at 37° C. in a 5% CO2 incubator for 48 hours. NIK-333 was dissolved in dimethyl sulfoxide (DMSO); and added at 10^−12 to 10^−5 M. Then, a luciferase assay was performed by using Dual Luciferase Reporter Assay System (Promega). […] This KLF5-dependent PDGF-A promoter activation under overexpression of RARα was inhibited by NIK-333 (Lanes 5 to 12). […] On the other hand, it was noted that the KLF5-dependent PDGF-A promoter activation action under overexpression of RARβ was not affected by NIK-333.

[5] = biological target: T2, transcription factor KLF5 (PDGF-A promoter activation under overexpression of RARγ) (Homo sapiens, UniProt Q13887); assay: Luciferase assay of KLF5-dependent PDGF-A promoter activation, COS1 cells cotransfected with KLF5 and RARγ; format: cell-based; conditions: Example 1-2
T2 construct: expressed in transfected cells; host or cells: COS1 cells
Experimental: as §2

[6] = test system: vascular intimal hyperplasia resulted from vascular injury due to the cuff; assay: Mouse cuff-induced injury model, Example 3-1 (HE staining); format: in vivo, C57BL6/N mice; conditions: for I/M ratio: HE staining, 5 weeks after cuff
Experimental: Vascular remodeling analysis was performed by using a cuff-induced injury model. Usefulness of this model in relation to vascular remodeling has been reported (Physiol. Genomics, 2, pp.13-30, 2000; Circulation, 104, pp.2716-2721, 2001; Circulation, 106, pp.847-853, 2002). For this experiment, 8-week old male C57BL6/N mice (10 animals/group) were used. In an amount of 50 mg/kg of NIK-333 dissolved in soybean oil was orally given once a day and every day from 7 days before placement of a cuff (placement of polyethylene tube around blood vessel) to the day before sacrifice. The control group received soybean oil alone in the same manner. After the 7-day pretreatment, the right femoral artery was covered with PE50 (polyethylene tube 50) as a cuff. The animals were sacrificed after 5 weeks. Blood was collected, and the cuff was removed under perfusion fixation via puncture of the left ventricle. For pathological evaluation, hematoxylin/eosin (HE) staining was performed. As a result, the ratio of I/M (intima/media) in vascular intimal hyperplasia resulted from vascular injury due to the cuff decreased in the NIK-333 treatment group compared with the control group.

[7] = biological target: T3, transcription factor KLF5 (PDGF-A promoter activation under overexpression of RARβ) (Homo sapiens, UniProt Q13887); assay: Luciferase assay of KLF5-dependent PDGF-A promoter activation, COS1 cells cotransfected with KLF5 and RARβ; format: cell-based; conditions: Example 1-2, FIG. 3
T3 construct: expressed in transfected cells; host or cells: COS1 cells
Experimental: as §2

[8] = Influence on mouse testes weight and body weight; format: in vivo, C57BL6/N mice
Experimental: Eight-week old male C57BL6/N mice (10 animals/group) were used. In an amount of 50 mg/kg or 100 mg/kg of NIK-333 dissolved in soybean oil was orally given once daily every day for 5 weeks. The control group received soybean oil alone in the same manner. Body weights were measured after 5 weeks. The animals were sacrificed, then the testes were observed by visual observation, and the testes weights were measured.

[9] = test system: Fibroblast-derived 3T3 cells; assay: Cell growth of fibroblast 3T3 (living cell count); format: cell-based
Experimental: Fibroblast-derived 3T3 cells were seeded on a 24-well plate at a rate of 1×10^6 cells/well and left for 12 hours. Then, NIK-333 and ATRA were added at 10^−7 to 10^−4 M, and living cells were counted 24, 36 and 48 hours later. NIK-333 and ATRA were dissolved in DMSO.

[10] = 50 mg/kg orally once daily for 5 weeks
[11] = 100 mg/kg orally once daily for 5 weeks

T1 sequence (P10276 whole entry partner): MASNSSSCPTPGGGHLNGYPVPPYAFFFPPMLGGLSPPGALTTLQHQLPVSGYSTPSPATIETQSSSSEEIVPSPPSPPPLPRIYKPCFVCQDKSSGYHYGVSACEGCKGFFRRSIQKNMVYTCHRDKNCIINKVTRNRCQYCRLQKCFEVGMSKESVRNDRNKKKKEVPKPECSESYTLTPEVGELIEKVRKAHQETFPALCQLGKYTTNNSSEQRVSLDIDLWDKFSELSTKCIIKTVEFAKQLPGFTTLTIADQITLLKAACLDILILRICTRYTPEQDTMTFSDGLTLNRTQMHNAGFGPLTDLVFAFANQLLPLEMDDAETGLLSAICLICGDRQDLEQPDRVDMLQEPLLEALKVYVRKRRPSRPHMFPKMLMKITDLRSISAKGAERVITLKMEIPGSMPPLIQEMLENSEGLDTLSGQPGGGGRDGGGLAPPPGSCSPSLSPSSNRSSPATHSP
T1 sequence (Q13887 whole entry): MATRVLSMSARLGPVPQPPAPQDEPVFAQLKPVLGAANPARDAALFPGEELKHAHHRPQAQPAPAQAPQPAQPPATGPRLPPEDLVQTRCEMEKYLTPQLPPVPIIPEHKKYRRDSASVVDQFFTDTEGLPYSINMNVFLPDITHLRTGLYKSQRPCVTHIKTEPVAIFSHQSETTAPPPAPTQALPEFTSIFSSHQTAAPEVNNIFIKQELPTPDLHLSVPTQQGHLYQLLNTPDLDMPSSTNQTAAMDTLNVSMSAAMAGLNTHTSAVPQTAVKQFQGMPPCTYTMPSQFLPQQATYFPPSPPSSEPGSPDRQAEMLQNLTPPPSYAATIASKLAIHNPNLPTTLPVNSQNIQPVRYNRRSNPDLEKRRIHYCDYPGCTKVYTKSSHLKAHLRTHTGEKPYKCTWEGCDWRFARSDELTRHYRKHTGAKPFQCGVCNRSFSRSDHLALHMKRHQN
T2 sequence (P13631 whole entry partner): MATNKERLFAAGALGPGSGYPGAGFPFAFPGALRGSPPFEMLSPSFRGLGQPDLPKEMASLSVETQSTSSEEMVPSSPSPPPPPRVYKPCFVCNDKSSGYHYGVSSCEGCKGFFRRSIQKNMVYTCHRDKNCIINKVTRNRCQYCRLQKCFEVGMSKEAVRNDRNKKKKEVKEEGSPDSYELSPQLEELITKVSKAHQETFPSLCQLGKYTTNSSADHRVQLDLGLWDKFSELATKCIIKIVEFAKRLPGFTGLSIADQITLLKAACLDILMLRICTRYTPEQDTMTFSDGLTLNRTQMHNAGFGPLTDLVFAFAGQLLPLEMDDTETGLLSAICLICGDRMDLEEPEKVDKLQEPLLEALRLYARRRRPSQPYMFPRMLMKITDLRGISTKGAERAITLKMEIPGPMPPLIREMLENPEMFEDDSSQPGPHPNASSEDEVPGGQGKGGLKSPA
T2 sequence (Q13887 whole entry): as the sequence (Q13887 whole entry) above
T3 sequence (Q13887 whole entry): as above

With `CC1=C(/C=C/C(C)=C/C=C/C(C)=C/C(=O)O)C(C)(C)CCC1` [ATRA, all-trans-retinoic acid, reference compound] the “I/M ratio (mean ± S.D.)” value ([1]; 5 mg/kg orally once daily) was 0.64 ± 0.3, the “I/M ratio (mean ± S.D.)” value ([1]; 10 mg/kg orally once daily) was 0.63 ± 0.2 and the “ratio of I/M (intima/media) compared with the control group” value (from here on “ratio of I/M (intima/media)”) ([1]; ATRA 5 or 10 mg/kg) was “no difference was observed”. The living cell count (3T3-KLF5 cells; 3T3-KLF5 cells) was “decrease of the living cell count was observed in a concentration-dependent manner” and the living cell count (3T3-mock cells) was “decrease of the living cell count was observed in a concentration-dependent manner”.

For `CC1(C)CCC(C)(C)c2cc(NC(=O)c3ccc(C(=O)O)cc3)ccc21` [Am80], the “neointimal formation in injured blood vessels” value [2] is listed as “inhibited” and the “transcription of PDGF-A induced by KLF5” value (KLF5) is listed as “inhibited”.

For `CC(C)=CCC/C(C)=C/CC/C(C)=C/C=C/C(C)=C/C(=O)O` [NIK-333, (2E,4E,6E, 10E)-3,7,11,15-Tetramethyl-2,4,6,10,14-hexadecapentanoic acid], the “I/M ratio (mean ± S.D.)” value ([1]; 100 mg/kg orally once daily) was 0.38 ± 0.2, the “I/M ratio (mean ± S.D.)” value ([1]; 200 mg/kg orally once daily) was 0.09 ± 0.1 and the “ratio of I/M (intima/media)” value ([1]; NIK-333 100 or 200 mg/kg) was “decreased”. For the same compound, the “recurrence of hepatoma after radical treatment” value (hepatoma recurrence) was “significantly inhibited”, the “liver function failure and adverse side effects observed with other retinoids” value [3] was “does not substantially induce” and the “action on living cell count compared with ATRA” value (3T3-KLF5 cells; 3T3-KLF5 cells) was “more potent than that of ATRA”. For the same compound, the living cell count (3T3-KLF5 cells; 3T3-KLF5 cells) was “decrease of the living cell count was observed in a concentration-dependent manner”, the “survival rate of 3T3-KLF5 cells versus 3T3-mock cells” value (3T3-KLF5 cells; after the addition of NIK-333) was “the survival rate of the 3T3-KLF5 cells was higher than that of the 3T3-mock cells” and the “KLF5-dependent PDGF-A promoter activation action under overexpression of RARα” value ([4]; Example 1-1, COS1 cells, 10^−7 to 10^−5 M, FIG. 1) was “inhibited”. The “concentration from which the action showed concentration dependency” value ([4]; Example 1-1, COS1 cells, RARα) was ≥ 10^−7 M, the “KLF5-dependent PDGF-A promoter activation under overexpression of RARα” value ([4]; Example 1-2, COS1 cells, 10^−12 to 10^−5 M, FIG. 2) was “inhibited” and the “concentration from which the inhibitory action was significantly concentration-dependent” value ([4]; Example 1-2, COS1 cells, RARα) was ≥ 10^−10 M. For the same compound, the “inhibitory action compared with ATRA” value ([4]; Example 1-2, RARα) was “more potent than that of all-trans-retinoic acid (ATRA)”, the “KLF5-dependent activation of the PDGF-A promoter under overexpression of RARγ” value ([5]; COS1 cells, FIG. 3) was “inhibited” and the “inhibitory action compared with ATRA” value ([5]; RARγ) was “more potent than that of ATRA”. For the same compound, the I/M ratio ([6]; 50 mg/kg orally once a day) was 0.87 ± 0.29, the I/M ratio ([6]; 100 mg/kg) was 0.75 ± 0.31 and the “ratio of I/M (intima/media)” value ([6]; NIK-333 treatment group, Example 3-1) was “decreased”. The “KLF5-dependent PDGF-A promoter activation action under overexpression of RARβ” value [7] was “not affected”, the Body weight [8, 10] was 20.8 ± 0.3 g and the “Weight of both testes” value [8, 10] was 0.1465 ± 0.0043 g. For the same compound, the Body weight [8, 11] was 21.2 ± 0.3 g, the “Weight of both testes” value [8, 11] was 0.1360 ± 0.0026 g and the “body weight compared with the control group” value ([8]; 50 or 100 mg/kg, 5 weeks) was “no difference was observed”. For the same compound, the “testes weight compared with the control group” value ([8]; 50 or 100 mg/kg, 5 weeks) was “no difference was observed”, the “visual observation of the testes” value ([8]; 50 or 100 mg/kg, 5 weeks) was “no abnormal finding was observed” and the “concentration from which cell growth was inhibited in a concentration dependent manner” value ([9]; 3T3 cells) was ≥ 10^−7 M. For the same compound, the “cell growth inhibitory action compared with ATRA” value ([9]; 3T3 cells, FIG. 4) was “more potent than that of ATRA”, the “cell growth of 3T3 cells (living cell count)” value ([9]; 10^−7 to 10^−4 M, 24, 36 and 48 hours, FIG. 4) was “inhibited cell growth in a concentration dependent manner” and the “action on living cell count compared with ATRA” value (3T3-mock cells) was “more potent than that of ATRA”. The living cell count (3T3-mock cells) was “decrease of the living cell count was observed in a concentration-dependent manner”.
